One test has as its system Colo 205. Description: CRC cell line growth inhibition in vitro. Format: cell-based. The settings on record: KRAS wt, BRAF V600E.
The subject of the next test is Colo 201. In words: CRC cell line growth inhibition in vitro. The test is classed as cell-based. Conditions: KRAS wt, BRAF V600E.
The test system of the next test is Colo 741. Description: CRC cell line growth inhibition in vitro. Conditions: KRAS wt, BRAF V600E. Format: cell-based.
A further test has as its system HT-29. In words: CRC cell line growth inhibition in vitro. The settings on record: KRAS wt, BRAF V600E. Format: cell-based.
In the next test the test system is HCT-116. In words: CRC cell line growth inhibition in vitro. The test is classed as cell-based. Conditions: KRAS G13D, BRAF wt.
The subject of the next test is SW-480. In words: CRC cell line growth inhibition in vitro. The settings on record: BRAF wt. Format: cell-based.
The test system of another test is SW-620. In words: CRC cell line growth inhibition in vitro. The test is classed as cell-based. The settings on record: KRAS G12V, BRAF wt.
A further test has as its system Colo 320. In words: CRC cell line growth inhibition in vitro. Format: cell-based. The settings on record: KRAS wt, BRAF wt.
In the next test the test system is HT-55. Description: CRC cell line growth inhibition in vitro. The test is classed as cell-based. Conditions: BRAF N581Y.
The test system of a further test is NCI-H716. In words: CRC cell line growth inhibition in vitro. The settings on record: KRAS wt, BRAF wt. The test is classed as cell-based.
In a further test the test system is SNU-C1. In words: CRC cell line growth inhibition in vitro. Format: cell-based. The settings on record: KRAS wt, BRAF wt.
A further test deals with SW-48. Description: CRC cell line growth inhibition in vitro. The settings on record: BRAF wt, EGFR G719S. The test is classed as cell-based.
The test system of the next test is BON-1. In words: Neuroendocrine cell line growth inhibition, Cell Titer Glow, 72 hrs. Conditions: for GI50: BON-1, 72 hrs. The test is classed as cell-based. The method, then: (§1) All cell lines were tested for mycoplasma and maintained at 37° C. in 5% CO2 atmosphere.
(§2) The data were normalized with respect to DMSO vehicle control to generate growth inhibition GI50 values.
Background: In ATP-based viability assays light output follows the ATP content of the culture.

In another test the test system is H-720. Described as above. Conditions: for GI50: H-720, 72 hrs. Format: cell-based. The procedure:
as §1, §2

In a further test the test system is HC-45. Described as above. The test is classed as cell-based. Conditions: for GI50: HC-45, 72 hrs. The procedure: as §1, §2
The test system of the next test is QGP-1. The test is described as above. The test is classed as cell-based. The settings on record: for GI50: QGP-1, 72 hrs. The method, then: as §1, §2
Another test deals with IR and IGF1R receptors. In words: Human Phospho-Receptor Tyrosine Kinase array, BON-1 and H-720 lysates. Format: cell-based. Conditions: 1 μM overnight, BON-1 and H-720 cells. The text has this:
BON-1 and H-720 cell lysates were hybridized to R&D Systems' Human Phospho-Receptor Tyrosine Kinase (RTK) Arrays (Catalog #ARY001) according to the manufacturer's instructions. In the array, each RTK is spotted in duplicate. Hybridization signals at the corners serve as controls.

A further test has as its system H3122R cells. In words: Growth inhibition of cells selected for resistance to PF-1066. The test is classed as cell-based, human.

“Also recorded” adds a separate entry of the source. Structures can show the parent of a compound that is named as a salt.

Text for Colo 320: (§3) The GI-50 concentration is provided as a function of mutational status.
Text for HT-55: as §3
Text for NCI-H716: as §3
Text for SW-620: as §3

As a reminder, the GI50 is the concentration that inhibits growth by half. `CO[C@H]1/C=C\C=C(/C)C(=O)NC2=CC(=O)C(N)=C(C[C@@H](C)C[C@H](OC)[C@H](O)[C@@H](C)/C=C(\C)[C@@H]1OC(N)=O)C2=O` [IPI-493, 17-AG]: the GI50 in the test with Colo 205 is 0.007 µM; in the test on Colo 201, more than 10 µM; with Colo 741, more than 10 µM; in the test on HT-29, 0.002 µM; in the test with HCT-116, 0.034 µM; in the test on SW-480 (KRAS G12V), 0.03 µM. The 50% growth inhibitory concentration (GI50) in the test on SW-620 was 0.013 µM; in the test with Colo 320, more than 1.6 µM; with HT-55 (KRAS wt) it was 0.028 µM; in the test on NCI-H716 it was 0.035 µM; with SNU-C1 it was 0.025 µM; with SW-48 (KRAS wt), 0.007 µM. Moreover, the GI50 in the test on BON-1 amounted to 0.019 µM; in the test with H-720, 0.189 µM; with HC-45 it was 0.088 µM; in the test on QGP-1, 0.01 µM. In the test with IR and IGF1R receptors, the “constitutive phosphorylation of IR and IGF1R receptors” value was “inhibited this constitutive phosphorylation”.

Take `C=CCNc1c(O)cc2c(O)c1C[C@@H](C)C[C@H](OC)[C@H](O)[C@@H](C)/C=C(\C)[C@H](OC(N)=O)[C@@H](OC)/C=C\C=C(/C)C(=O)N2` [IPI-504, retaspimycin hydrochloride]: the GI50 with H3122R cells (Homo sapiens, NCI-H3122, read-out: Res. H3122 (GI50, nM)) is 76 nM; in the test on Colo 205 (Homo sapiens) it was 0.008 µM; with Colo 201 (Homo sapiens) it was more than 10 µM; in the test with Colo 741 (Homo sapiens) it was more than 10 µM; in the test with HT-29 (Homo sapiens), 0.006 µM; in the test on HCT-116 (Homo sapiens), 0.088 µM. In addition, the GI50 in the test with SW-480 (Homo sapiens, SW480, KRAS G12V) was 0.042 µM; with SW-620 (Homo sapiens), 0.051 µM; with Colo 320 (Homo sapiens), more than 1.6 µM; in the test on HT-55 (Homo sapiens, HT55, KRAS wt) it was 0.054 µM; in the test on NCI-H716 (Homo sapiens) it was 0.066 µM; in the test with SNU-C1 (Homo sapiens) it was 0.117 µM. For the same compound, the GI50 in the test on SW-48 (Homo sapiens, SW48, KRAS wt) was 0.013 µM; in the test with BON-1 it was 0.049 µM; in the test with H-720 it was 0.93 µM; with HC-45 it was 0.705 µM; in the test with QGP-1 it was 0.302 µM. Further, the “sensitivity of H3122R cells” value in the test on H3122R cells (hydrochloride) is listed as “remained sensitive; also recorded: retain sensitivity”. In addition, the growth inhibition plateau in the test with BON-1 (BON-1, IPI-504 72 hours) is on record as 60%; in the test on QGP-1 (QGP-1, IPI-504 72 hours), 60%. Further, the maximum growth inhibition in the test on H-720 (NCI-H720, IPI-504 72 hours) is recorded as 100%; in the test on HC-45 (HC-45, IPI-504 72 hours) it was 100%. Moreover, the “constitutive phosphorylation of IR and IGF1R receptors” value with IR and IGF1R receptors was “inhibited this constitutive phosphorylation”.

The record behind these values is patent publication US20110118298A1, “COMPOSITIONS, KITS, AND METHODS FOR IDENTIFICATION, ASSESSMENT, PREVENTION, AND THERAPY OF CANCER” (INFINITY PHARMACEUTICALS, INC., priority 2009, published 2011).
